Where two headings read alike, the source gives them in different places. Blank lines part the entries; values can stand above or below the molecule they belong to.
Tests used:
[1] = tested on: wild-type hDAAO; parameters: method as in Molla et al. (2006) and Murtas et al. (2017); conditions: air saturation, 25°C, pH 8.5, ref Molla et al. (2006) and Murtas et al. (2017), cited from earlier work; for Km: read-out: apparent Km
[2] = molecular target: T1, R120L hDAAO variant (Homo sapiens, UniProt P14920, R120L); assay: Apparent kinetic parameters on D-amino acids (oxygen electrode), R120L hDAAO; type: biochemical; conditions: air saturation, 25°C, pH 8.5, 0.2 mM FAD
T1 construct: His-tag (N); made in house; host or cells: E. coli BL21 (DE3) Star
Experimental: (§1) The kinetic parameters were determined on different D-amino acids, employing increasing substrate concentrations (Molla et al., [2000], [2006]). The apparent kinetic parameters were calculated using the initial reaction rate according to a Michaelis–Menten equation using the Kaleidagraph software (Synergy Software, Reading, PA, USA).
(§2) The apparent kinetic parameters were calculated according to a Michaelis–Menten equation using the initial velocity values determined at increasing D-amino acid concentrations and a fixed O2 concentration (air saturation) at pH 8.5 and 25°C, in the presence of 0.2 mM FAD to avoid apoprotein formation for wild-type hDAAO.

[3] = molecular target: T2, R120E hDAAO variant (Homo sapiens, UniProt P14920, R120E); assay: Apparent kinetic parameters on D-amino acids (oxygen electrode), R120E hDAAO; type: biochemical; conditions: air saturation, 25°C, pH 8.5, 0.2 mM FAD
T2 construct: His-tag (N); made in house; host or cells: E. coli BL21 (DE3) Star
Experimental: as §1, §2

[4] = tested on: U87 glioblastoma cells; assay: Confocal analysis of cellular distribution of EYFP-hDAAO variants in transiently transfected U87 cells; type: cell-based, human
Experimental: Human U87 glioblastoma cells (ATCC) were cultured in DMEM supplemented with 10% fetal bovine serum, 1 mM sodium pyruvate, 2 mM L-glutamine, 1% non-essential amino acids, 1% penicillin/streptomycin, and 1% amphotericin B (Euroclone), at 37°C in 5% CO2. The cells were transfected either with the pEYFP-hDAAO-C3 construct (for the expression of the wild-type enzyme downstream of the enhanced yellow fluorescent protein, EYFP) (Sacchi et al., [2008], [2011]), the pEYFP-hDAAO(R120L)-C3, or the pEYFP-hDAAO(R120E)-C3 expression vectors. The latter constructs were obtained by mutagenesis using the QuikChange Lightning Site-Directed Mutagenesis Kit (Agilent), and the following primers: 5′-[…]-3′ and 5′-[…]-3′ for the R120E substitution, and 5-[…]-3′ and 5′-[…]-3′ for the R120L substitution.
For transient transfection, 2 ×10^4 cells were seeded into eight-well chamber slides (Sarstedt). At 24 h after seeding, cells were transfected with 2 μg plasmid DNA using a 4:1 ratio of FuGENE transfection reagent (Promega) to DNA. Then, 12.5 μL of transfection mix was added to 500 μL medium per well. Protein expression levels were monitored by using a fluorescence microscope (Olympus IX51) equipped with a FITC filter and by Western blot analysis using an anti-hDAAO antibody (Davids Biotechnologie) (Sacchi et al., [2008], [2011]).
At 24, 48, and 72 h after transfection, cells were washed twice with PBS and fixed with ice-cold 4% p-formaldehyde and 4% sucrose for 10 min at room temperature. After fixation, cells were washed twice with PBS and blocked by incubation in PBS supplemented with 0.2% Triton X-100 and 4% horse serum for 30 min at room temperature. Peroxisomes were stained using rabbit polyclonal anti-PMP70 (peroxisomal membrane protein 70, Sigma), diluted 1:500 in PBS, 0.1% Triton X-100, and 4% horse serum overnight at 4°C; they were then washed twice in PBS and 1% horse serum and incubated for 1 h at room temperature (light protected) with goat anti-rabbit Dylight 550 secondary antibodies (Abcam) diluted 1:400 in PBS, 0.1% Triton X-100, and 1.5% horse serum. Cells were then extensively washed in PBS and nuclei were stained with DRAQ5™ (Thermo Scientific) and diluted 1:500 in PBS for 10 min at room temperature in the dark. Cells were washed three times with PBS and stored in PBS at 4°C until imaging.
Immunostained cells were imaged using an inverted laser scanning confocal microscope (TCS SP5, Leica Microsystems), equipped with a 63.0 ×1.25 NA plan apochromatic oil immersion objective. Confocal image stacks were acquired using the Leica TCS software with a sequential mode to avoid interference between each channel and without saturating any pixel. Cells in 10–15 non-magnified optical fields were analyzed for each condition (i.e., different EYFP-hDAAO expression constructs at different times after transfection). The fluorescence signal corresponding to the overexpressed EYFP-hDAAO variants was monitored by excitation at 514 nm (yellow channel); the peroxisomal and nuclear cellular compartments were imaged by excitation at 546 nm (red channel) and 647 nm (blue channel), respectively.
U87 glioblastoma cells were transiently transfected with a pEYFP-hDAAO-C3 plasmid encoding for EYFP-hDAAO chimeric proteins harboring R, E, or L at position 120 of the flavoenzyme. […] A similar amount of transfected cells (expressing EYFP-hDAAO protein) was obtained for all three constructs (Table 4). The percentage of cells showing a cytosolic, peroxisomal, and nuclear localization of the flavoenzyme was determined by comparing the yellow fluorescence signal of EYFP-hDAAO variants with those of the markers PMP-70 (for peroxisomes) and DRAQ5™ dye (for nuclei, Figure 5). The amount of cytosolic wild-type EYFP-hDAAO decreased with time after transfection (28% of the signal is cytosolic at 72 h vs. 94% at 24 h), as did the amount of nuclear signal (Table 4 and Figure 6). […]

[5] = Standard DAAO activity assay of purified hDAAO variants (oxygen electrode, 28 mM D-alanine); type: biochemical; conditions: pH 8.5, 25°C
[6] = molecular target: T2, R120E hDAAO variant; assay: FAD and ligand binding by quenching of protein fluorescence, R120E hDAAO
Experimental: (§3) Protein fluorescence spectra were recorded between 300 and 400 nm, with excitation at 280 nm using a Jasco FP-750 instrument (excitation slit of 10 nm; emission slit of 5 nm) in 10 mM potassium phosphate, pH 8.0, 1% (v/v) glycerol, 5 mM 2-mercaptoethanol, […]

[7] = molecular target: wild-type hDAAO; conditions: cited from earlier work
[8] = molecular target: T1, R120L hDAAO variant; assay: FAD and ligand binding by quenching of protein fluorescence, R120L hDAAO
Experimental: as §3

[9] = tested on: W209R hDAAO; parameters: method as in Cappelletti et al., 2015; conditions: compared with wild-type hDAAO; ref Cappelletti et al., 2015; cited from earlier work
[10] = read-out: Benzoate Kd, first saturation phase
[11] = read-out: Benzoate Kd, second saturation phase
[12] = apoprotein, no benzoate, read-out: FAD Kd, free form, first saturation phase
[13] = apoprotein, no benzoate, read-out: FAD Kd, free form, second saturation phase
[14] = in presence of 70 μM benzoate, read-out: FAD Kd, benzoate complex, first saturation phase
[15] = in presence of 70 μM benzoate, read-out: FAD Kd, benzoate complex, second saturation phase

T2 sequence (P14920 whole entry R120E): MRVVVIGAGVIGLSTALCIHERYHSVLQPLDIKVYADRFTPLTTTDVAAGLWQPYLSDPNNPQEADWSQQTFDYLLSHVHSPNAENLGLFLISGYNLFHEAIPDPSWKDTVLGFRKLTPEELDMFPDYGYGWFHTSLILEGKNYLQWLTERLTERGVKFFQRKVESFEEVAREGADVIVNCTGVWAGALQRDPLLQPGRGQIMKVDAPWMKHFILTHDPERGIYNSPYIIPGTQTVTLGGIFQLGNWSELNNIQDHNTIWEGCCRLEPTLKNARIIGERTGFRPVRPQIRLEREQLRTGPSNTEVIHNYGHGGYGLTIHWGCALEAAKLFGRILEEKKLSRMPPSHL
T1 sequence (P14920 whole entry R120L): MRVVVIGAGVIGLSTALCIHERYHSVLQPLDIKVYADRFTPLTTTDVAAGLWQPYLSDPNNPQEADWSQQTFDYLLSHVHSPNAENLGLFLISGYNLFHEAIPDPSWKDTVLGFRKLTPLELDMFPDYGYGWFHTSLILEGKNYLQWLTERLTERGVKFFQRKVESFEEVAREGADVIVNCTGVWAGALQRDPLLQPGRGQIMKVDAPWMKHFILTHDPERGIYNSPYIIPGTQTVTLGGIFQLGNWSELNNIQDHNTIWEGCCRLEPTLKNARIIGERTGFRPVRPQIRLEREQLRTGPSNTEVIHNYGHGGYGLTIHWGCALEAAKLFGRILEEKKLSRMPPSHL

Km [2]: 700 ± 100 µM | apparent kcat [2]: 15.6 ± 0.7 s⁻¹ | Km [3]: 600 ± 100 µM | apparent kcat [3]: 9.9 ± 0.5 s⁻¹
Molecule: N[C@H](CS)C(=O)O [D-Cys, D-cysteine]
apparent kcat [1]: 8.6 ± 0.2 s⁻¹ | Km [1]: 600 ± 100 µM

Kd [6, 10]: 0.16 ± 0.01 µM | Kd [6, 11]: 7980 µM | Kd ([6]; read-out: Kd for the second phase of binding): ~8000 µM | Kd [8, 10]: 0.27 ± 0.12 µM | Kd [8, 11]: 6200 µM
Molecule: O=C(O)c1ccccc1 [Benzoate, benzoate]
Kd ([7]; ref Murtas et al. (2017), read-out: Benzoate Kd, first saturation phase): 0.33 ± 0.04 µM | Kd ([7]; ref Murtas et al. (2017), read-out: Benzoate Kd, second saturation phase): 2590 µM | Kd ([7]; ref Murtas et al., 2017, read-out: Kd for the second phase of binding): 2600 µM

Km [2]: 26700 ± 4500 µM | apparent kcat [2]: 11.3 ± 0.4 s⁻¹ | Km [3]: 17600 ± 3500 µM | apparent kcat [3]: 8.5 ± 0.4 s⁻¹
Molecule: N[C@H](CO)C(=O)O [D-Ser, D-serine]
apparent kcat [1]: 3.0 ± 0.1 s⁻¹ | Km [1]: 7500 ± 500 µM

The next lines start with the molecule.

Molecule: C[C@@H](N)C(=O)O [D-Ala, D-alanine]
apparent kcat [1]: 5.2 ± 0.1 s⁻¹ | Km [1]: 1300 ± 200 µM

Molecule: R120L: hDAAO variant with Arg120 substituted by leucine (His-tagged from E. coli; EYFP-tagged in U87 cells)
hDAAO cellular distribution: A, large cytosolic aggregates detected ([4]; 24 h after transfection): 41.5 % of transfected cells | hDAAO cellular distribution: C, cytosol ([4]; 24 h after transfection): 93.1 % of transfected cells | hDAAO cellular distribution: C/P, mixed, cytosol and peroxisomes ([4]; 24 h after transfection): 3.8 % of transfected cells | hDAAO cellular distribution: N, nucleus ([4]; 24 h after transfection): 20.8 % of transfected cells | hDAAO cellular distribution: P, peroxisomes ([4]; 24 h after transfection): 3.1 % of transfected cells | hDAAO cellular distribution: A, large cytosolic aggregates detected ([4]; 48 h after transfection): 22.6 % of transfected cells | hDAAO cellular distribution: C, cytosol ([4]; 48 h after transfection): 59.7 % of transfected cells | hDAAO cellular distribution: C/P, mixed, cytosol and peroxisomes ([4]; 48 h after transfection): 21.0 % of transfected cells | hDAAO cellular distribution: N, nucleus ([4]; 48 h after transfection): 20.2 % of transfected cells | hDAAO cellular distribution: P, peroxisomes ([4]; 48 h after transfection): 19.4 % of transfected cells | hDAAO cellular distribution: A, large cytosolic aggregates detected ([4]; 72 h after transfection): 35.6 % of transfected cells | hDAAO cellular distribution: C, cytosol ([4]; 72 h after transfection): 45.5 % of transfected cells | hDAAO cellular distribution: C/P, mixed, cytosol and peroxisomes ([4]; 72 h after transfection): 21.2 % of transfected cells | hDAAO cellular distribution: N, nucleus ([4]; 72 h after transfection): 13.1 % of transfected cells | hDAAO cellular distribution: P, peroxisomes ([4]; 72 h after transfection): 34.3 % of transfected cells | Specific activity [5]: 17.6 U/mg protein

Molecule: R120E: hDAAO variant with Arg120 substituted by glutamate (His-tagged from E. coli; EYFP-tagged in U87 cells)
hDAAO cellular distribution: A, large cytosolic aggregates detected ([4]; 24 h after transfection): 29.7 % of transfected cells | hDAAO cellular distribution: C, cytosol ([4]; 24 h after transfection): 86.7 % of transfected cells | hDAAO cellular distribution: C/P, mixed, cytosol and peroxisomes ([4]; 24 h after transfection): 7.8 % of transfected cells | hDAAO cellular distribution: N, nucleus ([4]; 24 h after transfection): 36.7 % of transfected cells | hDAAO cellular distribution: P, peroxisomes ([4]; 24 h after transfection): 6.3 % of transfected cells | hDAAO cellular distribution: A, large cytosolic aggregates detected ([4]; 48 h after transfection): 31.3 % of transfected cells | hDAAO cellular distribution: C, cytosol ([4]; 48 h after transfection): 56.7 % of transfected cells | hDAAO cellular distribution: C/P, mixed, cytosol and peroxisomes ([4]; 48 h after transfection): 14.9 % of transfected cells | hDAAO cellular distribution: N, nucleus ([4]; 48 h after transfection): 27.6 % of transfected cells | hDAAO cellular distribution: P, peroxisomes ([4]; 48 h after transfection): 28.4 % of transfected cells | hDAAO cellular distribution: A, large cytosolic aggregates detected ([4]; 72 h after transfection): 18.2 % of transfected cells | hDAAO cellular distribution: C, cytosol ([4]; 72 h after transfection): 40.3 % of transfected cells | hDAAO cellular distribution: C/P, mixed, cytosol and peroxisomes ([4]; 72 h after transfection): 18.2 % of transfected cells | hDAAO cellular distribution: N, nucleus ([4]; 72 h after transfection): 24.0 % of transfected cells | hDAAO cellular distribution: P, peroxisomes ([4]; 72 h after transfection): 41.6 % of transfected cells | Specific activity [5]: 21.0 U/mg protein

Molecule: Cc1cc2nc3c(=O)[nH]c(=O)nc-3n(C[C@H](O)[C@H](O)[C@H](O)COP(=O)(O)OP(=O)(O)OC[C@H]3O[C@@H](n4cnc5c(N)ncnc54)[C@H](O)[C@@H]3O)c2cc1C [FAD]
tighter FAD-binding (fold) [9]: 4 fold | amplitude of fluorescence change, FAD binding, free form, first phase ([6]; apoprotein, no benzoate): 65% | amplitude of fluorescence change, FAD binding, free form, second phase ([6]; apoprotein, no benzoate): 35% | Kd [6, 12]: 0.05 ± 0.01 µM | Kd [6, 13]: 32 ± 3 µM | amplitude of fluorescence change, FAD binding, benzoate complex, first phase ([6]; in presence of 70 μM benzoate): 65% | amplitude of fluorescence change, FAD binding, benzoate complex, second phase ([6]; in presence of 70 μM benzoate): 35% | Kd [6, 14]: 0.61 ± 0.08 µM | Kd [6, 15]: ≥ 30 µM | Kd ([7]; apoprotein, no benzoate, ref Murtas et al. (2017), read-out: FAD Kd, free form, first saturation phase): 0.43 ± 0.02 µM | Kd ([7]; apoprotein, no benzoate, ref Murtas et al. (2017), read-out: FAD Kd, free form, second saturation phase): ≥ 30 µM | Kd ([7]; in presence of 70 μM benzoate, monophasic, ref Murtas et al. (2017), read-out: FAD Kd, benzoate complex): 0.48 ± 0.02 µM | amplitude of fluorescence change, FAD binding, free form, first phase ([8]; apoprotein, no benzoate): 60% | amplitude of fluorescence change, FAD binding, free form, second phase ([8]; apoprotein, no benzoate): 40% | Kd [8, 12]: 0.05 ± 0.01 µM | Kd [8, 13]: 23.1 ± 1 µM | amplitude of fluorescence change, FAD binding, benzoate complex, first phase ([8]; in presence of 70 μM benzoate): 75% | amplitude of fluorescence change, FAD binding, benzoate complex, second phase ([8]; in presence of 70 μM benzoate): 25% | Kd [8, 14]: 0.07 ± 0.01 µM | Kd [8, 15]: ≥ 20 µM

From publication PMC6862323, “Substitution of Arginine 120 in Human D-Amino Acid Oxidase Favors FAD-Binding and Nuclear Mistargeting” (Frontiers in Molecular Biosciences, 2019)
